Article PMC3586143 (Drugs in R&D, 2012)
Read-outs that look alike come from different tables or passages of the source. One block for each molecule: values may come before it.

Experiments:
[1] = in vivo; for tmax, median (range): 300 mg
clinical = details: male, human, in vivo, po, 200 mg/day; for AUC: AUC24, gmean; for Cmax: gmean
[2] = test system: vascular endothelial growth factor and epidermal growth factor; details: cellular assays for VEGF and EGF; cited from earlier work
healthy male subjects [3] = test: Study B: safety and tolerability assessments; type: in vivo
[4] = for half-life: t½, gmean (CV%)
[5] = for increase in AUC504: vandetanib + itraconazole compared with vandetanib alone
healthy male subjects [6] = test: Study A: safety and tolerability assessments; type: in vivo

Structure (SMILES): COc1cc2c(Nc3ccc(Br)cc3F)ncnc2cc1OCC1CCNCC1 [N-desmethylvandetanib]
AUC504 of metabolite as % of AUC504 of vandetanib [1]: ≈ 7% | tmax, median (range) [1]: 5 h

Structure (SMILES): COc1cc2c(Nc3ccc(Br)cc3F)ncnc2cc1OCC1CC[N+](C)([O-])CC1 (stereo not shown) [vandetanib N-oxide]
increase in AUCct [1]: 126% | time post-dose by which plasma concentrations were nonquantifiable [1]: 96 to 240 h | tmax, median (range) [1]: 7 h | activity relative to vandetanib (fold less active) [2]: > 50 fold

Structure (SMILES): COc1cc2c(Nc3ccc(Br)cc3F)ncnc2cc1OCC1CCN(C)CC1 [vandetanib]
subjects with increase from baseline in QTC of >60 ms (healthy male subjects [3]): Three subjects | increase in mean QTC interval after the dose (healthy male subjects [3]; at each timepoint): ≤ 20 ms | tolerability (healthy male subjects [3]; single dose 300 mg): well tolerated | subjects reporting adverse events (healthy male subjects [3]; vandetanib in the absence of itraconazole): 31.3% | median time to Cmax ([4]; both studies (A and B), vandetanib 300 mg single dose): 5 to 6 h | Tmax ([4]; male, human, plasma, oral, 300 mg): 6 h | half-life ([4]; male, human, plasma, oral, 300 mg, after vandetanib 300 mg alone): 218 h | half-life ([4]; male, human, plasma, oral, after vandetanib 300 mg + rifampicin): 116 h | Tmax ([5]; male, human, in vivo, 300 mg): 5 h | increase in AUC504 [5]: 9% | increase in AUC504 ([5]; listed as Vandetanib): about 9% | tolerability (healthy male subjects [6]; single dose 300 mg): well tolerated | change in mean corrected QT (QTC) interval (healthy male subjects [6]; vandetanib alone or in combination with rifampicin): no clinically important changes | subjects with increase from baseline in QTC interval of >60 ms (healthy male subjects [6]; vandetanib in combination with rifampicin): One subject | subjects reporting adverse events (healthy male subjects [6]; vandetanib in the presence of rifampicin): 31.3%

The remaining lines, values ahead:

AUC (clinical): 7690 ng·h/mL | Cmax (clinical): 413 ng/mL
Structure (SMILES): CC(O)C(C)n1ncn(-c2ccc(N3CCN(c4ccc(OCC5COC(Cn6cncn6)(c6ccc(Cl)cc6Cl)O5)cc4)CC3)cc2)c1=O (stereo not shown) [hydroxy-itraconazole]

AUC (clinical): 5040 ng·h/mL | Cmax (clinical): 424 ng/mL
Structure (SMILES): CCC(C)n1ncn(-c2ccc(N3CCN(c4ccc(OCC5COC(Cn6cncn6)(c6ccc(Cl)cc6Cl)O5)cc4)CC3)cc2)c1=O (stereo not shown) [itraconazole, reference compound]
